Test: Solubility (aqueous / gastrointestinal fluids)
Type: physicochemical

Question: Which “solubility in gastrointestinal fluids” value does the source give for `CCOC(=O)C(Cc1ccc(NC(=O)c2c(Cl)cccc2Cl)cc1)NC(=O)c1c(C)cccc1Cl` (stereo not shown) [Compound II] here?
Answer: The value was “practically insoluble”.
